The term IC50 denotes the concentration needed to halve the response being measured. A low value points to greater potency in that assay. The inhibition is the relative decrease from the control value, in per cent. Higher therefore signals a strong effect.

The values below come from ChEMBL document CHEMBL1155084 (J Med Chem, 2008).

Series [1] relates to Blood. Put plainly: Inhibition of TNFalpha release in human whole blood. The format is functional, tissue-based.
Series [2] relates to Blood. Put plainly: Inhibition of IL1-beta release in human whole blood. The format is functional, tissue-based.
Series [3] in a line: Inhibition of p38 MAPK.
The species named for series [4] is Homo sapiens. Kind of series: Inhibition of human PKA at 10 uM.
The target of series [5] is RAF proto-oncogene serine/threonine-protein kinase (Homo sapiens) (UniProt P04049). Put plainly: Inhibition of human c-RAF at 10 uM.
RAF proto-oncogene serine/threonine-protein kinase (Homo sapiens), sequence (P04049 whole entry): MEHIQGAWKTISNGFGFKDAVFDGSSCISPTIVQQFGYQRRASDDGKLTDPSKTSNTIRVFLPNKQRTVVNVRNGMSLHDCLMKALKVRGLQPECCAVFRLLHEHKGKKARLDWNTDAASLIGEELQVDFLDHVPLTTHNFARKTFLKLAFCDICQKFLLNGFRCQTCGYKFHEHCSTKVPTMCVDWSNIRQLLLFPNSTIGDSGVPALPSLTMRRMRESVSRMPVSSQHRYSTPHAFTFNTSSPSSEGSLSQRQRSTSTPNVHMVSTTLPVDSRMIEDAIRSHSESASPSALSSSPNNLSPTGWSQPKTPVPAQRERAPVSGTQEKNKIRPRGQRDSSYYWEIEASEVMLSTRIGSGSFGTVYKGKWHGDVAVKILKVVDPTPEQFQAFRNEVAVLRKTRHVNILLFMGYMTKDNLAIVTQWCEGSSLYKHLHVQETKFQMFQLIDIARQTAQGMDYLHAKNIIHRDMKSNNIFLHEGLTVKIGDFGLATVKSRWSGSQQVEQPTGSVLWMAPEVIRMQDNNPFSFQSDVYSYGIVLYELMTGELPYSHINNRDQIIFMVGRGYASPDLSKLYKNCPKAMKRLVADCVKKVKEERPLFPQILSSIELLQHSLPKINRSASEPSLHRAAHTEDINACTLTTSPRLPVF
For series [6], the target named is CYP2C9 (Homo sapiens, UniProt P11712). Put plainly: Inhibition of CYP2C9 at 10 uM. The format is ADME.
In series [7] the target is T1, CYP1A2 (Homo sapiens, UniProt P05177).
T1 sequence (P05177 whole entry): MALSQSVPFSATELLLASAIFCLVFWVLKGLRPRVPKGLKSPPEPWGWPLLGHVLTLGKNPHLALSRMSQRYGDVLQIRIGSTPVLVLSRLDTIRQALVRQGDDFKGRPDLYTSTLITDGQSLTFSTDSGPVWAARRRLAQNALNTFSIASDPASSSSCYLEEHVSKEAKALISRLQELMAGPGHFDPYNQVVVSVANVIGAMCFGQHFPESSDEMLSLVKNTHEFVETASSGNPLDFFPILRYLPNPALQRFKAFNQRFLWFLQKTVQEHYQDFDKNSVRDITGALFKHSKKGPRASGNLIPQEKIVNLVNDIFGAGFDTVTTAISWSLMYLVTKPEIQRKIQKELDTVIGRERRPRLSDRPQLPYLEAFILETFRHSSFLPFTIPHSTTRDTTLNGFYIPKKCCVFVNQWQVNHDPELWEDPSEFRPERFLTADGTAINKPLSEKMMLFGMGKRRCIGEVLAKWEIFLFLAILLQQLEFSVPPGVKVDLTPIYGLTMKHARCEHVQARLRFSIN
Put plainly: Inhibition of CYP1A2 at 10 uM. The format is ADME.

The target of series [8] is Protein kinase C alpha type (Homo sapiens) (UniProt P17252). Put plainly: Inhibition of human PKCalpha at 10 uM.
Series [9] addresses Glycogen synthase kinase-3 beta (Homo sapiens) (UniProt P49841). Put plainly: Inhibition of human GSK3-beta at 10 uM.
For series [10], the target named is CYP2C19 (Homo sapiens, UniProt P33261). Put plainly: Inhibition of CYP2C19 at 10 uM. The format is ADME.
CYP2C19, sequence (P33261 whole entry): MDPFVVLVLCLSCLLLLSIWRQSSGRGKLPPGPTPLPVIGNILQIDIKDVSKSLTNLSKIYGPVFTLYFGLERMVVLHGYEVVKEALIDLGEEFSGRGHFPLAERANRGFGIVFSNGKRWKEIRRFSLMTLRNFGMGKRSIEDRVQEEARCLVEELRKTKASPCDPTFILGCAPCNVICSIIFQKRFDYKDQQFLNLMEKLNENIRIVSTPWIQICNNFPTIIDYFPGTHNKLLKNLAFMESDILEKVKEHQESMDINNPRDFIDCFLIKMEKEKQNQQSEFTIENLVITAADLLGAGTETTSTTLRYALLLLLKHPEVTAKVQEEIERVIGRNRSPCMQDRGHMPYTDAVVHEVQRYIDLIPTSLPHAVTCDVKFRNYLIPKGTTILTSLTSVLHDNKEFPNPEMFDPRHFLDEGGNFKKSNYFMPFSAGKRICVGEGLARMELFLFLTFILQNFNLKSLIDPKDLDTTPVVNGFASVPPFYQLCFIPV
The target of series [11] is Mitogen-activated protein kinase 3 (Homo sapiens) (UniProt P27361). Put plainly: Inhibition of human ERK1 at 10 uM.
Series [12] deals with Mitogen-activated protein kinase 9 (Homo sapiens) (UniProt P45984). Kind of series: Inhibition of human JNK2alpha2 at 10 uM.
In series [13] the target is Rho-associated protein kinase 2 (Homo sapiens) (UniProt O75116). Kind of series: Inhibition of human ROCK2 at 10 uM.
The target in series [14] is T2, Mitogen-activated protein kinase 14 (Homo sapiens, UniProt Q16539). Put plainly: Inhibition of p38alpha.
T2 sequence (Q16539 whole entry): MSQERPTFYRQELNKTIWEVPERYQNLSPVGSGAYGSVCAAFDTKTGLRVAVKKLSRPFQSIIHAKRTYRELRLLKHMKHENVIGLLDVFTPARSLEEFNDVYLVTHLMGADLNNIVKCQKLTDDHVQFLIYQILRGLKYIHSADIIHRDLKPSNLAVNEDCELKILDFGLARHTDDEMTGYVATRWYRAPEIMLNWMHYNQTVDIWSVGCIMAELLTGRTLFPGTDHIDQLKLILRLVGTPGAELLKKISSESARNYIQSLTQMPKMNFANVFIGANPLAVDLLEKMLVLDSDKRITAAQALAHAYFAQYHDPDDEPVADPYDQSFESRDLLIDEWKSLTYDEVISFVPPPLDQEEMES
The target of series [15] is T2, Mitogen-activated protein kinase 14. Particulars: at 10 µM.
Description: Inhibition of human SAPK2a/p38-alpha at 10 uM
The target in series [16] is Mitogen-activated protein kinase 1 (Homo sapiens) (UniProt P28482). Put plainly: Inhibition of human MAPK2/ERK2 at 10 uM.
Mitogen-activated protein kinase 1 (Homo sapiens), sequence (P28482 whole entry, looked up): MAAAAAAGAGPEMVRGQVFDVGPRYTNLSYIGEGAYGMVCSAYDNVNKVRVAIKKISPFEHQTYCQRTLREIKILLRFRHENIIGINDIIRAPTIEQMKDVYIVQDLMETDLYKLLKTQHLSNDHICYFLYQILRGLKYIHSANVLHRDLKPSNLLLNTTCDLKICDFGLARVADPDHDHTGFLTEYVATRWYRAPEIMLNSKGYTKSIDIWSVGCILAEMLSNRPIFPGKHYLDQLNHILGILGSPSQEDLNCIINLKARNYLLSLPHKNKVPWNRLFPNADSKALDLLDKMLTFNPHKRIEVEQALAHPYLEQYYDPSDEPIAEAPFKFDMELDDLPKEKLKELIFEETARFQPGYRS
In series [17] the target is Dual specificity mitogen-activated protein kinase kinase 1 (Homo sapiens) (UniProt Q02750). Put plainly: Inhibition of human MEK1 at 10 uM.
The target in series [18] is Tyrosine-protein kinase Lck (Homo sapiens) (UniProt P06239). Put plainly: Inhibition of human LCK at 10 uM.
The target in series [19] is Mitogen-activated protein kinase 10 (Homo sapiens) (UniProt P53779). Put plainly: Inhibition of human JNK3 at 10 uM.
Mitogen-activated protein kinase 10 (Homo sapiens), sequence (P53779 whole entry): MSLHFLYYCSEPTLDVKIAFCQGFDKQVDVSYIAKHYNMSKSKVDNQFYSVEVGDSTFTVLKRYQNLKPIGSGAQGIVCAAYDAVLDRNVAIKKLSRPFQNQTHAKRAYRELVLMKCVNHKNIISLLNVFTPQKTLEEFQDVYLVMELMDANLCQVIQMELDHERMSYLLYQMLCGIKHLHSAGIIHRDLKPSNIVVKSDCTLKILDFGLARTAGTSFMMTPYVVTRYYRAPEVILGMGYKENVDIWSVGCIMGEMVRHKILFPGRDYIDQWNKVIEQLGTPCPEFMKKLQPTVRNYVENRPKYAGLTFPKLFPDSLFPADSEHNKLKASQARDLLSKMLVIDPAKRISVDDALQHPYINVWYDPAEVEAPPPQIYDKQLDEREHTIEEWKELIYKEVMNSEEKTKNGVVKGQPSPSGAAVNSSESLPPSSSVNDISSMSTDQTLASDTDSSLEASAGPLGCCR
For series [20], the species on record is Homo sapiens. Put plainly: Inhibition of human JNK1-alpha-1/SAPK1c at 10 uM.
The target in series [21] is CYP2D6 (Homo sapiens, UniProt P10635). Kind of series: Inhibition of CYP2D6 at 10 uM. The format is ADME.
CYP2D6, sequence (P10635 whole entry): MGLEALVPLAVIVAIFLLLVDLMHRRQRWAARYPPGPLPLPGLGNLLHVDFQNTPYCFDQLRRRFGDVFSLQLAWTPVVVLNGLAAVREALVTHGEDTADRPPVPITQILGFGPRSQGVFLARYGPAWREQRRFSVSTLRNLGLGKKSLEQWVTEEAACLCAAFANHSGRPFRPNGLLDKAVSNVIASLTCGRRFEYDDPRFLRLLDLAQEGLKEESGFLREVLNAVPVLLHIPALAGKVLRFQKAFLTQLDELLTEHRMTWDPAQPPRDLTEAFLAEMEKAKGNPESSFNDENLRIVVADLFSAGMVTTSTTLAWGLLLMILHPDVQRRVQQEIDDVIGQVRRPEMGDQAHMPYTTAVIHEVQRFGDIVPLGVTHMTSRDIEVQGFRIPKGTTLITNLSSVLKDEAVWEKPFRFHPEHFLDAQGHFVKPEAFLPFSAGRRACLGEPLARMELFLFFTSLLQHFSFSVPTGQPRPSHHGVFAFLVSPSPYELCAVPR
Series [22] deals with RAC-alpha serine/threonine-protein kinase (Homo sapiens) (UniProt P31749). Put plainly: Inhibition of human PKBalpha at 10 uM.
RAC-alpha serine/threonine-protein kinase (Homo sapiens), sequence (P31749 whole entry): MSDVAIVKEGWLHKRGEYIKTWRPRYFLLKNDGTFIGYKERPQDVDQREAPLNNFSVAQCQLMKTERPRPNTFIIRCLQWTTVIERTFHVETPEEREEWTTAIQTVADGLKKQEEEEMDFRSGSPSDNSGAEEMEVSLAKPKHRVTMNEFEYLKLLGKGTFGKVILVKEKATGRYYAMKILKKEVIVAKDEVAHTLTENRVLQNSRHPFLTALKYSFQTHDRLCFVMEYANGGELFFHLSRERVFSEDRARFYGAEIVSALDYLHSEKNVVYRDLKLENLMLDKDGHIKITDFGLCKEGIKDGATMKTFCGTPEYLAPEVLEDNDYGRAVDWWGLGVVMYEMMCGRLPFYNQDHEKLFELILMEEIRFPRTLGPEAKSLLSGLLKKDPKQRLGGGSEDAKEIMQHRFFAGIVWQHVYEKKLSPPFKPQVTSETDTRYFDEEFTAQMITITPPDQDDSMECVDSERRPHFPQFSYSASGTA
The species entered for series [23] is Homo sapiens. Put plainly: Inhibition of human CAMK2 at 10 uM.
The target of series [24] is CYP3A4 (Homo sapiens, UniProt P08684). Put plainly: Inhibition of CYP3A4 at 10 uM. The format is ADME.
CYP3A4, sequence (P08684 whole entry): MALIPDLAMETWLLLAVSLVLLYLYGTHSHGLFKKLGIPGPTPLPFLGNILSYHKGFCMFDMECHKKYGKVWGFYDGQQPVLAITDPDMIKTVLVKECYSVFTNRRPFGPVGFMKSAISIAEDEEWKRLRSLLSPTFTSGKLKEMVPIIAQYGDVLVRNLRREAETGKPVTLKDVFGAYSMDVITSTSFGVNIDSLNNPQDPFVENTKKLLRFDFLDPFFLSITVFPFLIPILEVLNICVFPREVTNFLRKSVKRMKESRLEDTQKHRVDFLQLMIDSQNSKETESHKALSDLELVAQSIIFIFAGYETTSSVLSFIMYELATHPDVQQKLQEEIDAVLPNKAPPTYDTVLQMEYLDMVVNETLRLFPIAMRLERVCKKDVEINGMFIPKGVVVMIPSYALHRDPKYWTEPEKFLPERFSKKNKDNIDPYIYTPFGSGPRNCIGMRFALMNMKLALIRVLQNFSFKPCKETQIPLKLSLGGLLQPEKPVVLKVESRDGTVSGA

Glycogen synthase kinase-3 beta (Homo sapiens), sequence (P49841 whole entry, looked up): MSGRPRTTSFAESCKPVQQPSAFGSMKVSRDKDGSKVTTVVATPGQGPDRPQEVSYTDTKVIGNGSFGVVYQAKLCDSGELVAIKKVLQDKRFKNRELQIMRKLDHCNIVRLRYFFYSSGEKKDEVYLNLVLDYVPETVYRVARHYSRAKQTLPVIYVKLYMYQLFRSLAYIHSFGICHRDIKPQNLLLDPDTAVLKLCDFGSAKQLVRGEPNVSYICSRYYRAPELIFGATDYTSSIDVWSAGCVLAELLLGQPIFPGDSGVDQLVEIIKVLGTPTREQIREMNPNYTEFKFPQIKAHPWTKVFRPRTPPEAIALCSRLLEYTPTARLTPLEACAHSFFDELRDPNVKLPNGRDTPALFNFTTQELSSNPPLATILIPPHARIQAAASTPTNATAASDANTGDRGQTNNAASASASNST

Consider `CSc1nc(-c2ccc(F)cc2)c(-c2ccnc(NC(C)c3ccccc3)c2)[nH]1` (stereo not given), for which the IC50 in series [1] worked out at 4330 nM; in [2], 4330 nM; in series [3] it was 380 nM.
On to `CSc1nc(-c2ccc(F)cc2)c(-c2ccnc(NC(C)c3ccccc3)c2)n1C` (stereo not given), for which the half-inhibitory concentration (IC50) worked out at 3000 nM in series [1], 4100 nM in [2] and 220 nM in [3].
As to `Clc1ccc(-c2nc(-c3ccccc3)[nH]c2-c2ccncc2)cc1`, in [3], the IC50 was 48 nM.
As to `CSc1nc(-c2ccc(F)cc2)c(-c2ccncc2)[nH]1`, the 50% inhibitory concentration (IC50) is 8650 nM in series [1], 44 nM in series [2] and 630 nM in series [3].
With `CSc1nc(-c2ccc(F)cc2)c(-c2ccnc(NC(C)CCCC(C)C)c2)[nH]1` (stereo not given), the IC50 in series [1] stood at 3990 nM; in series [14], 20 nM; in series [2] it was 7560 nM. Also, the inhibition in [4] was determined as 0%; in series [5], 7%; in [8], 0%; in series [9], 0%; in series [11], 28%; in series [12] it was 91%. Further, the inhibition turned out to be 0% in series [13]; 94% in series [15]; 6% in series [16]; 2% in [17]; 47% in [18]; 99% in series [19]. Further, the results for the inhibition in series [20], in [22] and in series [23] were 86%, 6% and 0%, respectively. Besides, the inhibition at 10 µM is 76% in series [6]; 23% in series [7]; 84% in series [10]; 66% in series [21]; 71% in [24].
Consider `FC(F)(F)c1cccc(-c2nc(-c3ccccc3)[nH]c2-c2ccncc2)c1`, for which it took 86 nM to reach half-maximal inhibition in series [3] (IC50). In other words, the double-digit nanomolar range.
With `C[S+]([O-])c1ccc(CSc2nc(-c3ccc(F)cc3)c(-c3ccncc3)[nH]2)cc1` (stereo not given), the values for the IC50 in series [1], in series [2] and in series [3] were 1100 nM, 380 nM and 4 nM, respectively.
`CSc1nc(-c2ccc(F)cc2)c(-c2ccnc(NC(C)CCc3ccccc3)c2)[nH]1` (stereo not given): the IC50 in series [1] turned out to be 350 nM; in series [14], 13 nM; in series [2], 2370 nM. Besides, the inhibition in series [4] was 0%; in series [5], 19%; in [8], 0%; in [9] it was 0%; in [11] it was 32%; in [12], 94%. In addition, the inhibition in series [13] came to 0%; in series [15], 97%; in series [16], 17%; in series [17], 3%; in series [18], 30%; in [19], 99%. Besides, the inhibition worked out at 88% in series [20], 5% in [22] and 0% in series [23]. For the same compound, the inhibition at 10 µM came to 88% in [6]; 38% in series [7]; 89% in series [10]; 78% in series [21]; 95% in [24].
